# Assay results: patent publication US10000471B2, “Pyrazole P38 map kinase inhibitors” (Respivert Limited, priority 2010, dated 2018)
# Read-outs that look alike come from different tables or passages of the source.
# Legend:
# p38 MAPKγ (MAPK12) = molecular target: T1, p38 MAPKγ (MAPK12) (Homo sapiens, UniProt P53778); assay: Enzyme inhibition assay (FRET, Z-LYTE), p38 MAPKγ; format: biochemical; conditions: read-out: Enzyme Inhibition IC50 p38γ
# T1 construct: purchased Invitrogen
# T1 sequence (P53778 1-367): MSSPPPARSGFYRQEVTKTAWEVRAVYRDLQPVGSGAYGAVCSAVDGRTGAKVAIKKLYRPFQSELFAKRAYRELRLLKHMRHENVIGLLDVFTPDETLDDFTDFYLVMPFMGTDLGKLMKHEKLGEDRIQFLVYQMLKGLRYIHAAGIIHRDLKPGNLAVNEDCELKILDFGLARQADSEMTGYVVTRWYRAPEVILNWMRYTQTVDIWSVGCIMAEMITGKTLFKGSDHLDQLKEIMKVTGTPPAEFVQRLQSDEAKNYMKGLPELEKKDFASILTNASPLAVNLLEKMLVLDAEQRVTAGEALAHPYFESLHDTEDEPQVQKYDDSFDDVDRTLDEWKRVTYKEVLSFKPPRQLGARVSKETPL
# Summary of the method: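 Recombinant phosphorylated p38 MAPKγ preincubated 2 h at RT with compound in HEPES buffer, then 2 μM FRET peptide and 100 μM ATP added for 1 h; protease development 1 h. Coumarin/fluorescein emission ratio gave phosphorylation; IC50 from concentration-response versus uninhibited control.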
# [1] = system: Differentiated U937 cells; assay: Cell viability MTT assay; format: cell-based, human; conditions: negative = apparent increase in viability; for MTT Assay (Viability) 4 h d-U937, percentage loss of cell viability: 4 hr in 5% FCS; for MTT Assay (Viability) 24 h d-U937, percentage loss of cell viability: 24 h in 10% FCS
# Summary of the method: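 Differentiated U937 cells pre-incubated with compound either 4 hr in 5% FCS or 24 h in 10% FCS, then 1 hr MTT. Formazan dissolved in DMSO, absorbance at 550 nm. Percentage viability loss relative to 0.5% DMSO vehicle; apparent increases appear as negative percentages.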
# [2] = molecular target: T2, p38 MAPKα isoform (MAPK14) (Homo sapiens, UniProt Q16539); assay: Enzyme inhibition assay (FRET, Z-LYTE), p38 MAPKα via MAPKAP-K2 activation; format: biochemical; conditions: read-out: Enzyme Inhibition IC50 p38α
# T2 construct: purchased Invitrogen
# Summary of the method: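 Recombinant p38 MAPKα was preincubated with compound for 2 h at RT. Its activity was measured indirectly through activation/phosphorylation of downstream MAPKAP-K2, with a Z-LYTE FRET peptide read-out (coumarin/fluorescein ratio) after a 1 h development step. IC50 came from concentration-response curves of percent inhibition versus an uninhibited control.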
# [3] = system: IL-8 release in d-U937 cells; assay: LPS-induced IL-8 release in d-U937 cells; format: cell-based, human
# Summary of the method: (§1)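 PMA-differentiated (100 ng/ml, 48–72 hr) U937 macrophage-type cells pre-incubated 2 hr with compound, then stimulated 4 hr with 0.1 μg/mL E. coli O111:B4 LPS; supernatant TNFα and IL-8 measured by sandwich ELISA. TNFα inhibition expressed relative to 10 μg/mL BIRB796, giving REC50; IL-8 inhibition versus vehicle, giving IC50.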
# [4] = system: TNFα release in THP-1 cells; assay: LPS-induced TNFα release in THP-1 cells; format: cell-based, human
# Summary of the method: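 Human monocytic THP-1 cells stimulated with 3 μg/mL E. coli LPS for 4 hr; supernatant TNFα measured by sandwich ELISA. Inhibition at each concentration versus vehicle control, IC50 from concentration-response curve.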
# [5] = system: ICAM-1 induction in BEAS2B cells; assay: Poly I:C-induced ICAM-1 induction in BEAS2B cells; format: cell-based, human; conditions: read-out: PolyIC/ICAM1 IC50 BEAS2B
# Summary of the method: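 Human bronchial epithelial BEAS2B cells were pre-incubated with compound for 2 hr, then transfected with 1 μg/mL poly I:C. After 18 hr, surface ICAM-1 was measured by cell-based ELISA (OD450-655) and normalized to crystal violet cell counts (OD595). IC50 came from inhibition versus vehicle across the concentration-response curve.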
# [6] = system: TNFα release in d-U937 cells; assay: LPS-induced TNFα release in d-U937 cells; format: cell-based, human
# Summary of the method: as §1
# [7] = Homo sapiens, dU937, relative to 10 μg/mL BIRB796, read-out: LPS/TNFα REC50 d-U937
# T2 sequence (Q16539 whole entry, canonical isoform): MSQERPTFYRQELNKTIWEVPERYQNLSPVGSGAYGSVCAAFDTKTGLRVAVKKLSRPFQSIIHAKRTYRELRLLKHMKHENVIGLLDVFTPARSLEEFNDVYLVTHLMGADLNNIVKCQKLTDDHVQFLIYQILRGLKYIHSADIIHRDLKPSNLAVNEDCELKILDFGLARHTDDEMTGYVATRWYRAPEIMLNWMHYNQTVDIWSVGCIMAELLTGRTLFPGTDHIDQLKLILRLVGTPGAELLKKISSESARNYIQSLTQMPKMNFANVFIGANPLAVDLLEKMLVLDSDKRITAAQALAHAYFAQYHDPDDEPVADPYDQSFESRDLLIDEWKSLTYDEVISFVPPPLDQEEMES
Compound,IC50 (p38 MAPKγ (MAPK12)) [nM],"MTT Assay (Viability) 4 h d-U937, percentage loss of cell viability [1] [%]","MTT Assay (Viability) 24 h d-U937, percentage loss of cell viability [1] [%]",IC50 [2] [nM],IC50 [3] [nM],IC50 [4] [nM],IC50 [5] [nM],"EC50 ([6]; relative to 10 μg/mL BIRB796, read-out: LPS/TNFα REC50 d-U937) [nM]","IC50 ([3]; Homo sapiens, dU937) [nM]",IC50 ([4]; Homo sapiens) [nM],"IC50 ([5]; Homo sapiens, BEAS-2B) [nM]","EC50 [6, 7] [nM]"
"COc1ccc(-n2nc(C(C)(C)C)cc2NC(=O)Nc2ccc(Oc3ccnc(NC(=O)N4CC[C@@H](N(C)C)C4)c3)c(Cl)c2Cl)cc1 [Example 81, (R)-N-(4-(4-(3-(3-tert-butyl-1-(4-methoxyphenyl)-1H-pyrazol-5-yl)ureido)-2,3-dichlorophenoxy)pyridin-2-yl)-3-(dimethylamino) pyrrolidine-1-carboxamide]",58.5,−8.7,33.3,7.7,4.9,1.1,14,0.8,–,–,–,–
"COCC(=O)Nc1cc(Oc2cc(Cl)c(NC(=O)Nc3cc(C(C)(C)C)nn3-c3ccc(C)cc3)cc2F)ccn1 [Example 38, N-(4-(4-(3-(3-tert-butyl-1-p-tolyl-1H-pyrazol-5-yl)ureido)-5-chloro-2-fluorophenoxy)pyridin-2-yl)-2-methoxyacetamide]",35.9,0.6,64.1,63,–,–,–,–,160,3.7,24.8,54.1
"COCC(=O)Nc1cc(Oc2ccc(NC(=O)Nc3cc(C(C)(C)C)nn3-c3ccc(C)cc3)c(F)c2)ccn1 [Example 1, N-(4-(4-(3-(3-tert-Butyl-1-p-tolyl-1H-pyrazol-5-yl)ureido)-3-fluorophenoxy)pyridin-2-yl)-2-methoxyacetamide]",40.5,1.7,76.1,105,–,–,–,–,9.6,0.9,8.8,2.3
"CC(C)(C)c1cc(NC(=O)Nc2ccc(Oc3ccnc(NC(=O)N4CCCC4)c3)c(Cl)c2Cl)n(-c2ccc(CO)cc2)n1 [Example 77, N-(4-(4-(3-(3-tert-butyl-1-(4-hydroxymethylphenyl)-1H-pyrazol-5-yl)ureido)-2,3-dichlorophenoxy)pyridin-2-yl)pyrrolidine-1-carboxamide]",24.3,−8.8,53.3,18.4,–,–,–,–,0.4,0.4,2.5,0.2
"Cc1ccc(-n2nc(C(C)(C)C)cc2NC(=O)Nc2ccc(OCc3ccnc(NC(=O)N4CCCC4)c3)c(Cl)c2Cl)cc1 [Example 19, N-(4-((4-(3-(3-tert-Butyl-1-(p-tolyl)-1H-pyrazol-5-yl)ureido)-2,3-dichlorophenoxy)methyl)pyridin-2-yl)pyrrolidine-1-carboxamide]",4370,−13.5,6.9,18.5,–,–,–,–,837,12.3,23.7,25.6
"CNC(=O)Nc1nccc(Oc2ccc(NC(=O)Nc3cc(C(C)(C)C)nn3-c3ccc(C)cc3)c(Cl)c2Cl)n1 [Example 96, 1-(3-tert-butyl-1-p-tolyl-1H-pyrazol-5-yl)-3-(2,3-dichloro-4-(2-(3-methylureido)pyrimidin-4-yloxy)phenyl)urea]",152,−16.1,−13.4,21.2,–,–,–,–,1.9,2.6,30,0.2
"COCC(=O)Nc1cc(Oc2ccc(NC(=O)Nc3cc(C(C)(C)C)nn3-c3ccc(C)cc3)c(Cl)c2C(F)(F)F)ccn1 [Example 37, N-(4-(4-(3-(3-tert-butyl-1-p-tolyl-1H-pyrazol-5-yl)ureido)-3-chloro-2-trifluoromethylphenoxy)pyridin-2-yl)-2-methoxyacetamide]",159,−0.4,24.7,102,–,–,–,–,6.9,1.8,4,1.9
"COc1ccc(-n2nc(C(C)(C)C)cc2NC(=O)Nc2ccc(Oc3ccnc(NC(=O)NCCN(C)C)c3)c(Cl)c2Cl)cc1 [Example 13, 1-(3-tert-Butyl-1-(4-methoxyphenyl)-1H-pyrazol-5-yl)-3-(2,3-dichloro-4-((2-(3-(2-(dimethylamino)ethyl)ureido)pyridin-4-yl)oxy)phenyl)urea]",21.7,−6.4,63.9,11.2,–,–,–,–,1.3,1.7,2.1,2.1
"COCC(=O)Nc1cc(CSc2ccc(NC(=O)Nc3cc(C(C)(C)C)nn3-c3ccc(OC)cc3)c(Cl)c2Cl)ccn1 [Example 26, N-(4-((4-(3-(3-tert-Butyl-1-(4-methoxyphenyl)-1H-pyrazol-5-yl)ureido)-2,3-dichlorophenylthio)methyl)pyridin-2-yl)-2-methoxyacetamide]",2860,10.5,−4.3,29,–,–,–,–,266,97.2,> 156,171
"COc1ccc(-n2nc(C(C)(C)C)cc2NC(=O)Nc2ccc(Oc3ccnc(NC(=O)N4CCC(O)C4)c3)c(Cl)c2Cl)cc1 (stereo not drawn) [Example 85, N-(4-(4-(3-(3-tert-butyl-1-(4-methoxyphenyl)-1H-pyrazol-5-yl)ureido)-2,3-dichlorophenoxy)pyridin-2-yl)-3-hydroxypyrrolidine-1-carboxamide]",27.2,−25.1,58.6,12.8,–,–,–,–,5.4,0.3,0.6,1.1
"COc1ccc(-n2nc(C(C)(C)C)cc2NC(=O)Nc2ccc(OCc3ccnc(NC(=O)N4CCCC4)c3)c(Cl)c2Cl)cc1 [Example 20, N-(4-((4-(3-(3-tert-Butyl-1-(4-methoxyphenyl)-1H-pyrazol-5-yl)ureido)-2,3-dichlorophenoxy)methyl)pyridin-2-yl)pyrrolidine-1-carboxamide]",> 15300,−19.1,9.6,30.7,–,–,–,–,1060,45.2,16.5,69.5
"CNC(=O)Nc1cc(Oc2ccc(NC(=O)Nc3cc(C(C)(C)C)nn3-c3ccc(C(=O)OC)cc3)c(Cl)c2Cl)ccn1 [Example 59, methyl 4-(3-tert-butyl-5-(3-(2,3-dichloro-4-(2-(3-methylureido)pyridin-4-yloxy)phenyl)ureido)-1H-pyrazol-1-yl)benzoate]",198,−24.8,0.0,125,–,–,–,–,1.9,2,0.9,1.6
